# Data taken from ChEMBL document CHEMBL1147126, “Habbemines A and B, pyrrolidine alkaloids with human delta-opioid receptor binding affinity from the leaves of Elaeocarpus habbemensis” (J Nat Prod, 2007).
# Biological target: Delta-type opioid receptor (Homo sapiens, UniProt P41143)
# Assay: Displacement of [125I]deltorphin 2 from human recombinant delta opioid receptor expressed in HEK cell membrane
# Format: cell membranes, HEK293
# Chain of Delta-type opioid receptor (P41143 whole entry): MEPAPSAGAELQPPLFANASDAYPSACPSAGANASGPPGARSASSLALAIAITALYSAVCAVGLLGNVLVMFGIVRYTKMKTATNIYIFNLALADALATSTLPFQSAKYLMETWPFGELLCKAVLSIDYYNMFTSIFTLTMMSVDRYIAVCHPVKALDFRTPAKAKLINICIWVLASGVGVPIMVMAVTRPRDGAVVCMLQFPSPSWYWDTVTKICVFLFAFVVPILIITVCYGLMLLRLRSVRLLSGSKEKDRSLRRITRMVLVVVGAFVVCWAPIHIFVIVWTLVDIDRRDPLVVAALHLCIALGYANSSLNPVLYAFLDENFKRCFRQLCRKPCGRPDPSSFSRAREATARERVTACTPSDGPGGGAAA
row,IC50,Structure (SMILES)
1,32.1 µM,C[C@H]1CC=CC(=O)[C@@H]1C(=O)C[C@@H]1CCCN1CCCO [HABBEMINES A]
2,32.1 µM,C[C@H]1CC=CC(=O)[C@@H]1C(=O)C[C@H]1CCCN1CCCO [HABBEMINES B]
